Ends that are not written are not given here.
What was measured:
Assay in all cases: CCK-8 cytotoxicity of the peptides
Conditions in all cases: CCK-8 assay, peptide alone, Figure S1
[1] = system: BEAS‐2B cells (human bronchial epithelial cells); type: cell-based
Experimental: (§1) Cell viability was detected by CCK8 assay (Beyotime Biotechnology, China) based on the universal protocol.[38] The ratio of cell viability was calculated as A treated/A control × 100%.

[2] = system: NCI‐H1299 (lung adenocarcinoma cells); type: cell-based, human
Experimental: as §1

[3] = system: A549 (lung adenocarcinoma cells); type: cell-based, human
Experimental: as §1

Measured: cytotoxicity

RGDGSRRRRPLGLAGRRRRGSRGD [RD24]
no significant cytotoxicity: all assays above

RGDGSRRRRPLGLAGRRRR [RR19]
no significant cytotoxicity: all assays above

RRRRPLGLAGRRRR [RR14]
no significant cytotoxicity: all assays above

Reference: PMC10382604, “The mirrored cationic peptide as miRNA vehicle for efficient lung cancer therapy” (MedComm, 2023)
